The values that follow come from US9815796B2 (Merck Sharp & Dohme Corp., priority 2013, dated 2017).

Structures are written as SMILES.

This assay has as its target human PDE2A1 (Homo sapiens (Human), UniProt O00408). As to the kind of experiment: IMAP FP PDE selectivity panel, human PDE2A1. The format is biochemical. Particulars: Human PDE2, Lab B; read-out: Human PDE2 Ki (nM) - Lab B. The protocol: Selectivity for PDE2, as compared to other PDE families, was assessed using the IMAP® technology. Human PDE 10A2 enzyme was prepared from cytosolic fractions of transiently transfected HEK cells. All other PDE's were GST Tag human enzyme expressed in insect cells and were obtained from BPS Bioscience (San Diego, Calif.): PDE1A (Cat#60010), human PDE2A1 (Cat#60020), PDE3A (Cat#60030), PDE4A1A (Cat#60040), PDE5A1 (Cat#60050), PDE6C (Cat#60060), PDE7A (Cat#60070), PDE8A1 (Cat#60080), PDE9A2 (Cat#60090), PDE11A4 (Cat#60110).
Assays for PDE 1 through 11 were performed in parallel at room temperature in 384-well microtiter plates with an incubation volume of 20.2 μL. Solutions of test compounds were prepared in DMSO and serially diluted with DMSO to yield 30 μL of each of ten solutions differing by 3-fold in concentration, at 32 serial dilutions per plate. […] A Labcyte POD 810 (Labcyte, Sunnyvale, Calif.) was used to dispense 200 nL from each well of the titration plate to make eleven copies of the assay plate for each titration, one copy for each PDE enzyme. A solution of each enzyme (dilution from aliquots, sufficient to produce 20% substrate conversion) and a separate solution of FAM-labeled cAMP or FAM-labeled cGMP from Molecular Devices (Sunnyvale, Calif., product # R7506 or cGMP#R7508), at a final concentration of 50 nM were made in the assay buffer (10 mM Tris HCl, pH 7.2, 10 mM MgCl2, 0.05% NaN3 0.01% Tween-20, and 1 mM DTT). Note that the substrate for PDE2 is 50 nM FAM cAMP containing 1000 nM of cGMP. The enzyme and the substrate were then added to the assay plates in two consecutive additions of 10 μL and then shaken to mix. The reaction was allowed to proceed at room temperature for 60 minutes. A binding solution was then made from the kit components, comprised of 80% Solution A, 20% Solution B and binding reagent at a volume of 1/600 the total binding solution. The enzymatic reaction was stopped by addition of 60 μL of the binding solution to each well of the assay plate. The plates were sealed and shaken for 10 seconds. The plates were incubated at room temperature for one hour, then the parallel and perpendicular fluorescence was measured using a Tecan Genios Pro plate reader (Tecan, Switzerland). The apparent inhibition constants for the compounds against all 11 PDE's was determined from the parallel and perpendicular fluorescent readings as described for PDE10 FP assay using the following apparent KM values for each enzyme and substrate combination: PDE1A (FAM cGMP) 70 nM, human PDE2A1 (FAM cAMP) 10,000 nM, PDE3A (FAM cAMP) 50 nM, PDE4A1A (FAM cAMP) 1500 nM, PDE5A1 (FAM cGMP) 400 nM, PDE6C (FAM cGMP) 700 nM, PDE7A (FAM cAMP) 150 nM, PDE8A1 (FAM cAMP) 50 nM, PDE9A2 (FAM cGMP) 60 nM, PDE10A2 (FAM cAMP) 150 nM, PDE11A4 (FAM cAMP) 1000 nM. The intrinsic PDE2 inhibitory activity of a compound which may be used in accordance with the present invention may be determined by these assays.

Chain of human PDE2A1 (O00408 other isoform, or with tags, fused parts or gaps): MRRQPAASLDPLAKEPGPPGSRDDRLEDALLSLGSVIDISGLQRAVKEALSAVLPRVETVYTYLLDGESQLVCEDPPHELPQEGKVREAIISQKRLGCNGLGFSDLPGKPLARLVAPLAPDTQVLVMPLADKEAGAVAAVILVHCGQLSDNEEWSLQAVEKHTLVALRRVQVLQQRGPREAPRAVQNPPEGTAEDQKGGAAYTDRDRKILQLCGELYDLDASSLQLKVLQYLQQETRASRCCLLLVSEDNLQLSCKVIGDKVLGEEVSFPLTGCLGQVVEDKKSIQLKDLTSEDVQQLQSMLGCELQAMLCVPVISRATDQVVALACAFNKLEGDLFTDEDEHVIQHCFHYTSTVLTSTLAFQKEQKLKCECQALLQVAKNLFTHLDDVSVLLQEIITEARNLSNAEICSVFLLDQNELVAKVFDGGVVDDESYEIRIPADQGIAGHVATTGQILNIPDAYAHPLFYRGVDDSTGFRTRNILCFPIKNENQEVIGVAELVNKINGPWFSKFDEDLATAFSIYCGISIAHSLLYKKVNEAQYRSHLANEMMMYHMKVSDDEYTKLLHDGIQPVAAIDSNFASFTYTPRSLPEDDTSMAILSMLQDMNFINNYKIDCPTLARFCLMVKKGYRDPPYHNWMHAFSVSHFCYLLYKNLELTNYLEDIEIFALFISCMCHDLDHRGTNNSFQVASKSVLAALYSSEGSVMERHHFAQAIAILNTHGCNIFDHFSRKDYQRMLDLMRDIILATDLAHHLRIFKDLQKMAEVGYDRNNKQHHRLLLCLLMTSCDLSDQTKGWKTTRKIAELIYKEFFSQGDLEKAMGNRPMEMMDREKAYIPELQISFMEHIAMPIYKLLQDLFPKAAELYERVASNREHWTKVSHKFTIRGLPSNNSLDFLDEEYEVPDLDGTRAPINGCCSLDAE

Turning to `Cc1nc(C(=O)N[C@@H](c2ccc(C(F)F)cc2)C2(C)CC2)cc(=O)[nH]1` [Example 645, N-[(R)-[4-(difluoromethyl)phenyl](1-methylcyclopropyl)methyl]-2-methyl-6-oxo-1,6-dihydropyrimidine-4-carboxamide], the Ki (as a rule, the equilibrium dissociation constant of an inhibitor or competing ligand from its target) stood at 25 nM. For `CC(C)[C@@H](NC(=O)c1cc(=O)[nH]c(-c2ncccn2)n1)c1ccc(OC(F)(F)F)c(Br)c1` [Example 580, N-{(1R)-1-[3-bromo-4-(trifluoromethoxy)phenyl]-2-methylpropyl}-6-oxo-1,6-dihydro-2,2′-bipyrimidine-4-carboxamide], the Ki was 38 nM.

As to `Cc1nc(C(=O)N[C@@H](c2ccc(C(F)F)c(F)c2)C(C)C)cc(=O)[nH]1` [Example 650, N-{(1R)-1-[4-(difluoromethyl)-3-fluorophenyl]-2-methylpropyl}-2-methyl-6-oxo-1,6-dihydropyrimidine-4-carboxamide], the Ki was determined as 33 nM. The figure for `CCC(C)(NC(=O)c1cc(=O)[nH]c(C)n1)c1ccc(C(F)(F)F)cc1` (single isomer, unassigned) [Example 668, (S)- or (R)-2-methyl-N-{1-methyl-1-[4-(trifluoromethyl)phenyl]propyl}-6-oxo-1,6-dihydropyrimidine-4-carboxamide] is 67 nM. For `Cc1nc(C(=O)NC2(c3ccc(CC(F)(F)F)cc3)CC2)cc(=O)[nH]1` [Example 627, 2-methyl-6-oxo-N-{1-[4-(2,2,2-trifluoroethyl)phenyl]cyclopropyl}-1,6-dihydropyrimidine-4-carboxamide] the value was 46 nM; for `CC(NC(=O)c1cc(=O)[nH]c(C2CC2)n1)c1ccc(C(C)(C)C(F)(F)F)cc1` (single isomer, unassigned) [Example 697], 115 nM; for `O=C(NC1(c2ccc(S(F)(F)(F)(F)F)cc2)CC1)c1cc(=O)[nH]c(-c2ncccn2)n1` [Example 570, 6-oxo-N-{1-[4-(pentafluoro-λ^6-sulfanyl)phenyl]cyclopropyl}-1,6-dihydro-2,2′-bipyrimidine-4-carboxamide], 21 nM.

As to `CC(C)(C)[C@@H](NC(=O)c1cc(=O)[nH]c(-c2ccccc2)n1)c1ccc(SC(F)(F)F)cc1` [Example 541, N-[(1R)-2,2-dimethyl-1-{4-[(trifluoromethyl)sulfanyl]phenyl}propyl]-6-oxo-2-phenyl-1,6-dihydropyrimidine-4-carboxamide], the Ki turned out to be 1.3 nM. Take `CC(C)c1ccc([C@H](NC(=O)c2cc(=O)[nH]c(-c3ccccc3)n2)C2(C)CC2)cc1` [Example 547, N-{(R)-(1-methylcyclopropyl)[4-(1-methylethyl)phenyl]methyl}-6-oxo-2-phenyl-1,6-dihydropyrimidine-4-carboxamide]: the Ki amounted to 1.8 nM. For `Cc1nc(C(=O)N[C@@H](c2ccc(C(F)F)c(F)c2)C2CC2)cc(=O)[nH]1` [Example 651, N-{(R)-cyclopropyl[4-(difluoromethyl)-3-fluorophenyl]methyl}-2-methyl-6-oxo-1,6-dihydropyrimidine-4-carboxamide] the value was 109 nM. For `O=C(N[C@@H](c1ccc(C2CC2)c(F)c1)C1CC1)c1cc(=O)[nH]c(-c2ccccc2)n1` [Example 546, N-[(R)-cyclopropyl(4-cyclopropyl-3-fluorophenyl)methyl]-6-oxo-2-phenyl-1,6-dihydropyrimidine-4-carboxamide] the value was 3.8 nM; for `CC(C)(C)[C@@H](NC(=O)c1cc(=O)[nH]c(-c2ncccn2)n1)c1ccc(C(F)(F)F)c([N+](=O)[O-])c1` [Example 567, N-{(1R)-2,2-dimethyl-1-[3-nitro-4-(trifluoromethyl)phenyl]propyl}-6-oxo-1,6-dihydro-2,2′-bipyrimidine-4-carboxamide], 49 nM; for `CC(C)[C@@H](NC(=O)c1cc(=O)[nH]c(-c2ncccn2)n1)c1ccc(C2CC2)c(F)c1` [Example 560, N-[(1R)-1-(4-cyclopropyl-3-fluorophenyl)-2-methylpropyl]-6-oxo-1,6-dihydro-2,2′-bipyrimidine-4-carboxamide], 5.1 nM. For `Cc1nc(C(=O)NC2(c3ccc(C(F)(F)F)cc3F)CC2)cc(=O)[nH]1` [Example 625, N-{1-[2-fluoro-4-(trifluoromethyl)phenyl]cyclopropyl}-2-methyl-6-oxo-1,6-dihydropyrimidine-4-carboxamide] the value was 51 nM; for `CC1([C@@H](NC(=O)c2cc(=O)[nH]c(-c3ncccn3)n2)c2ccc(OC(F)F)cc2)CC1` [Example 584, N-[(R)-[4-(difluoromethoxy)phenyl](1-methylcyclopropyl)methyl]-6-oxo-1,6-dihydro-2,2′-bipyrimidine-4-carboxamide], 36 nM; for `Cc1nc(C(=O)NC(CO)(CO)c2ccc(C(F)(F)F)cc2)cc(=O)[nH]1` [Example 605, N-{2-hydroxy-1-(hydroxymethyl)-1-[4-(trifluoromethyl)phenyl]ethyl}-2-methyl-6-oxo-1,6-dihydropyrimidine-4-carboxamide], 102 nM.

For the molecule `CC(C)(C)[C@@H](NC(=O)c1cc(=O)[nH]c(-c2ccccc2)n1)c1ccc(CC(F)(F)F)cc1` [Example 537, N-{(1R)-2,2-dimethyl-1-[4-(2,2,2-trifluoroethyl)phenyl]propyl}-6-oxo-2-phenyl-1,6-dihydropyrimidine-4-carboxamide], the Ki came to 2.4 nM. For `CCc1nc(C(=O)N[C@H](C)c2ccc(OC(F)(F)F)c(F)c2)cc(=O)[nH]1` [Example 598, 2-ethyl-N-{(1R)-1-[3-fluoro-4-(trifluoromethoxy)phenyl]ethyl}-6-oxo-1,6-dihydropyrimidine-4-carboxamide] the value was 3.7 nM. For `O=C(N[C@@H](c1ccc(OC(F)F)cc1)C1CC1)c1cc(=O)[nH]c(-c2ncccn2)n1` [Example 559, N-{(R)-cyclopropyl[4-(difluoromethoxy)phenyl]methyl}-6-oxo-1,6-dihydro-2,2′-bipyrimidine-4-carboxamide] the value was 128 nM; for `Cc1nc(C(=O)N[C@@H](c2ccc3c(c2)OC(F)(F)O3)C(C)C)cc(=O)[nH]1` [Example 607, N-[(1R)-1-(2,2-difluoro-1,3-benzodioxol-5-yl)-2-methylpropyl]-2-methyl-6-oxo-1,6-dihydropyrimidine-4-carboxamide], 48 nM.

For the molecule `Cc1nc(C(=O)N[C@](C)(CO)c2ccc(C(F)(F)F)cc2Cl)cc(=O)[nH]1` [Example 640, N-{(1S)-1-[2-chloro-4-(trifluoromethyl)phenyl]-2-hydroxy-1-methylethyl}-2-methyl-6-oxo-1,6-dihydropyrimidine-4-carboxamide], the Ki came out at 4.4 nM. The figure for `CC(C)(C)[C@@H](NC(=O)c1cc(=O)[nH]c(-c2ncccn2)n1)c1ccc(C2CC2)cc1` [Example 557, N-[(1R)-1-(4-cyclopropylphenyl)-2,2-dimethylpropyl]-6-oxo-1,6-dihydro-2,2′-bipyrimidine-4-carboxamide] is 8.9 nM; for `Cc1nc(C(=O)N[C@@H](c2ccc(OC(F)(F)F)cc2)C(C)(C)O)cc(=O)[nH]1` [Example 724, N-{(1S)-2-hydroxy-2-methyl-1-[4-(trifluoromethoxy)phenyl]propyl}-2-methyl-6-oxo-1,6-dihydropyrimidine-4-carboxamide] it is 3.1 nM. For `Cc1nc(C(=O)N[C@@H](c2ccc(C(F)F)cc2F)C(C)(C)C)cc(=O)[nH]1` [Example 661, N-{(1R)-1-[4-(difluoromethyl)-2-fluorophenyl]-2,2-dimethylpropyl}-2-methyl-6-oxo-1,6-dihydropyrimidine-4-carboxamide] the value was 6.6 nM; for `O=C(NC1(c2ccc(CC(F)(F)F)cc2)CC1)c1cc(=O)[nH]c(-c2ncccn2)n1` [Example 578, 6-oxo-N-{1-[4-(2,2,2-trifluoroethyl)phenyl]cyclopropyl}-1,6-dihydro-2,2′-bipyrimidine-4-carboxamide], 104 nM.
